Source: paper PMC3914206

How the values were obtained:
Assay type in all cases: binding
panel of 442 kinases [1] = biological target: T1, panel of 442 kinases (Homo sapiens, UniProt P45983); conditions: Compound Concentration 10 µM
T1 construct: purchased KINOMEscan
Source text: (§1) We assessed the selectivity of members of this scaffold using the KINOMEscan methodology across a near comprehensive panel of 442 kinases [[18,27]].

panel of 442 kinases [2] = biological target: T2, panel of 442 kinases (Homo sapiens, UniProt Q9BRS2); conditions: Compound Concentration 10 µM
T2 construct: purchased KINOMEscan
T2 sequence (Q9BRS2 1-568): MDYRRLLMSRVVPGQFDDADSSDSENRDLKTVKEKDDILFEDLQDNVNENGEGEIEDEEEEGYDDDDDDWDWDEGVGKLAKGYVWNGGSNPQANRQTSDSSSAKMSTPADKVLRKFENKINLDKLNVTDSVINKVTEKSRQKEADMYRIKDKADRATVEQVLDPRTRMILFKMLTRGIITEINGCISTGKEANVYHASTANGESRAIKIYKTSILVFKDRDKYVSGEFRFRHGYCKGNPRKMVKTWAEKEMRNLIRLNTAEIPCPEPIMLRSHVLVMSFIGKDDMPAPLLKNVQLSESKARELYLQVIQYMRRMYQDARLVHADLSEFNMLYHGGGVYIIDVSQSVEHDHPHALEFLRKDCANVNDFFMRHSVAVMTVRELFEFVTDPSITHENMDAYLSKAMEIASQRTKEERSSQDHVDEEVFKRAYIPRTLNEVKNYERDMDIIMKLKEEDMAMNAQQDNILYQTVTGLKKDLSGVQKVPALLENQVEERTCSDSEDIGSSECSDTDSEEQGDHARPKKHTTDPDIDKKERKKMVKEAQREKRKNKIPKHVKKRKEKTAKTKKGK
Source text: as §1

panel of 442 kinases [3] = biological target: T3, panel of 442 kinases (Homo sapiens, UniProt Q52WX2); conditions: kinase SBK1; compound concentration 10 µM
T3 construct: purchased KINOMEscan
Source text: as §1

T1 sequence (P45983 whole entry): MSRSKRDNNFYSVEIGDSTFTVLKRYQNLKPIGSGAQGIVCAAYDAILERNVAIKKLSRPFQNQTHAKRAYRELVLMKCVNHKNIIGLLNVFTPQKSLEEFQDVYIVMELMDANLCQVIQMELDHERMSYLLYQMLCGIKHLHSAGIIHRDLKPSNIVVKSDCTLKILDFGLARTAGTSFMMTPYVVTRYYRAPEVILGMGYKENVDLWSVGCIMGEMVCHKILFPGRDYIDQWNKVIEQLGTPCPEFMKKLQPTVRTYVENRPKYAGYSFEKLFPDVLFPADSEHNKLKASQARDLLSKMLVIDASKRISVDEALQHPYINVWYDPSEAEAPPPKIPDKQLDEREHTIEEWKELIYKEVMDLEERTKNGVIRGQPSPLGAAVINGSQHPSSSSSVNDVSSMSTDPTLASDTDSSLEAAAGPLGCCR
T3 sequence (Q52WX2 whole entry): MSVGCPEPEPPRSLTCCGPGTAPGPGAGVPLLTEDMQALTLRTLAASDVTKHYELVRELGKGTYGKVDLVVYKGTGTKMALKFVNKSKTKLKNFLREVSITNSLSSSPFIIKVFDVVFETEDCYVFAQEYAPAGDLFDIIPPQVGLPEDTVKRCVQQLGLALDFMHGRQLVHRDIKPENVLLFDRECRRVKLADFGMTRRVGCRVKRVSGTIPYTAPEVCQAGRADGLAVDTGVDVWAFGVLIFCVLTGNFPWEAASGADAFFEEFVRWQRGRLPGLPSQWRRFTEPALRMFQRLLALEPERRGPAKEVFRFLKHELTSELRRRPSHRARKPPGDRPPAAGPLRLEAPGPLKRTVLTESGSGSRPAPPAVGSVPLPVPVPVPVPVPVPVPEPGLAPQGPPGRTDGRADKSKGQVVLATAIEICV

Compound	KINOMEscan: JNK1 (panel of 442 kinases [1])	KINOMEscan: RIOK1 (panel of 442 kinases [2])	% Ctrl, SBK1 (panel of 442 kinases [3]) [% Ctrl]
CCOc1cc(C(=O)N2CCC(N3CCN(C)CC3)CC2)ccc1Nc1ncc2c(n1)N(C1CCCC1)c1ccccc1C(=O)N2C [Compound 26]	76	100	99
COc1cc(C(=O)N2CCC(N3CCN(C)CC3)CC2)ccc1Nc1ncc2c(n1)N(C1CCCC1)c1ccccc1C(=O)N2C [Compound 25, 11-cyclopentyl-2-((2-methoxy-4-(4-(4-methylpiperazin-1-yl)piperidine-1-carbonyl)phenyl)amino)-5-methyl-5H-benzo[e]pyrimido[5,4-b][1,4]diazepin-6(11H)-one]	38	76	72
COc1cc(C(=O)N2CCC(N3CCN(C)CC3)CC2)ccc1Nc1ncc2c(n1)N1CCc3cccc(c31)C(=O)N2C [Compound 24]	63		80
COc1cc(C(=O)N2CCC(N3CCN(C)CC3)CC2)ccc1Nc1ncc2c(n1)N(C)c1ccccc1C(=O)N2C [15 (LRRK2-IN-1)]	95	100	100
